Laboratory results taken from patent publication US20070225492A1 (priority 2004, published 2007).
Where a name gives a salt, the structure may show the parent alone.

Row | melting point | Structure (SMILES)
1 | 123 to 125 °C | CCC(=O)N1CC2CC(C1)N2C/C=C(\C)c1ccccc1 (as salt: hydrochloride)
2 | 160 to 163 °C | CCC(=O)N1CC2CC(C1)N2C/C=C(\CC)c1ccccc1 (as salt: hydrochloride)
